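Method: 48-hour compound exposure of cells in 96-well plates, five concentrations, linear interpolation of endpoints. Here, GI50 denotes the concentration required for 50% inhibition of growth. At the TGI there is no net growth.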 Bounds are passed on as bounds.

One assay deals with UO-31 renal. As to the kind of experiment: inhibition of tumour cell growth, NCI panel, 48 h.
For the compound `C/C(=N\NS(=O)(=O)c1ccccc1)c1ccc(Cl)c(Cl)c1`, the TGI is over 100 µM.
`CCCNC1=C(C(=O)OCC)C(=O)CO1`: the TGI was over 100 µM.
Compound `COC(=O)C(=O)C1(CCC(C)=O)c2ccccc2-c2c(C)ccc(C)c21` (stereo unspecified) came in with a TGI of over 100 µM.
The compound `CC1(C)C(=NNC(=O)C[N+](C)(C)C)C(C)(C)C1=NNC(=O)C[N+](C)(C)C` gave a TGI of over 100 µM.
Compound `COc1ccc2nc(-c3cccs3)cc(C(O)CN3CCSCC3)c2c1` (stereo unspecified) returned a TGI of 60.8 µM.
On to `N#C/C(=C\c1ccc(O)c(O)c1)C(N)=S`, for which the TGI is over 100 µM.
In the case of `O=C(CN1CCOCC1)Nc1nc(-c2ccc(Cl)cc2)cs1`, the TGI stood at 67 µM.
The compound `CC1=C(Oc2ccccc2)C(CCC(=O)O)c2c(O)cc(Cl)c(O)c21` (stereo unspecified) had a TGI of over 100 µM.
Same read-out and setting: then `COc1cc(C(=O)C/C(CCCC(=O)Nc2ccccc2[N+](=O)[O-])=N/NC(=O)c2cc3ccccc3cc2O)ccc1O`, with over 100 µM; and `CC(C)[C@H]1CO[C@]2(C)[C@@H]3CN(Cc4ccccc4)C[C@@H]3C(=O)N12`, with over 100 µM; and `CN(C)C(=O)OC(Cn1cncn1)c1ccc(Cl)cc1Cl` (stereo unspecified), with over 100 µM.
Regarding `CCOC(=O)COc1ccccc1/C=C1\CCC(CN(C)C)C1=O` (stereo unspecified), the TGI came out at 29.9 µM.
As to `Cc1c(C(=O)C/C(=N\O)C(=O)Nc2cc(Cl)c(Cl)cc2Cl)[n+](=O)c2ccccc2n1[O-]`, the TGI was 78.2 µM.
The same measure, in the same setting: then `CC1=Nc2ccccc2S/C1=C(/C)NNC(=O)C(N)=O`, with over 100 µM.
Take `Nn1c(NNC(=O)C(=O)Nc2cc(Cl)c(Cl)cc2Cl)n[nH]c1=S`: the TGI was over 100 µM.
As for `COc1ccc2c(c1)/C(=C\c1c(C)nc3sccn13)C(=O)N2`, the GI50 is 0.0147 µM and the TGI turned out to be 20.3 µM.
On to `O=C(N/C(=C\c1ccc2c(c1)OCO2)c1nc2ccccc2[nH]1)c1ccccc1`, for which the TGI is 99.8 µM.
Still for that read-out and setting: the figure for `CSc1ccc(C2OC(=O)c3ccccc32)c2ccccc12` (stereo unspecified) is over 100 µM; for `Cc1[nH]ccc2c1[nH]c1cc(=O)ccc12` it is over 100 µM.
Still for that read-out and setting: the figure for `C#CCOCn1cnc2c(Cl)ncnc21` is over 100 µM; for `NC1C[C@H](n2cc(/C=C/Br)c(=O)[nH]c2=O)C[C@@H]1CO` (stereo partly specified) it is over 100 µM; for `O=c1/c(=C/c2ccccc2F)sc2nc3ccccc3n12` it is over 100 µM.
As for `COc1ccc(-c2n/c(=C\c3c(O)[nH]c4ccc(OC)cc34)cc3c2=Nc2ccccc2-3)cc1`, the GI50 was 18 µM and the TGI was determined as 56.1 µM.
On to `Cc1ccc(N=Cc2ccc3c(c2)OCO3)cc1C`, for which the TGI was over 100 µM.
`COC(C(=O)[O][Ge]([CH3])([CH3])[CH3])c1ccccc1` (stereo unspecified): the GI50 was over 100 µM and the TGI was over 100 µM.
With `CC(=O)OCC1OC(OC2C(CSC3OC(COC(C)=O)C(OC(C)=O)C(OC(C)=O)C3OC(C)=O)OC(OC(C)=O)C(OC(C)=O)C2OC(C)=O)C(OC(C)=O)C(OC(C)=O)C1OC(C)=O` (stereo unspecified), the TGI is over 100 µM.
Turning to `CCCCC(CC)CN=C(N)NC(N)=NCCCCCCN=C(N)NC(N)=NCC(CC)CCCC` (stereo unspecified), the GI50 was 3.03 µM and the TGI stood at 10.1 µM.
In turn, `COc1ccc(OC)c(NC(=O)C2=C(C)NC(C)=C(C(=O)Nc3cc(OC)ccc3OC)C2c2ccccc2)c1` yielded a TGI of over 100 µM.
In turn, `Nc1ccn(CCNCCn2cnc3nc(N)[nH]c(=O)c32)c(=O)n1` had a TGI of over 100 µM.

In a further assay the test system is OVCAR-4 ovarian. The experiment in a line: inhibition of tumour cell growth, NCI panel, 48 h.
For `C/C(=N\NS(=O)(=O)c1ccccc1)c1ccc(Cl)c(Cl)c1`, the TGI was over 100 µM.
Turning to `CCCNC1=C(C(=O)OCC)C(=O)CO1`, the TGI was over 100 µM.
In the case of `COC(=O)C(=O)C1(CCC(C)=O)c2ccccc2-c2c(C)ccc(C)c21` (stereo unspecified), the TGI is over 100 µM.
Turning to `CC1(C)C(=NNC(=O)C[N+](C)(C)C)C(C)(C)C1=NNC(=O)C[N+](C)(C)C`, the TGI is over 100 µM.
Compound `COc1ccc2nc(-c3cccs3)cc(C(O)CN3CCSCC3)c2c1` (stereo unspecified) came in with a TGI of over 100 µM.
`N#C/C(=C\c1ccc(O)c(O)c1)C(N)=S` had a TGI of over 100 µM.
Turning to `O=C(CN1CCOCC1)Nc1nc(-c2ccc(Cl)cc2)cs1`, the TGI was over 100 µM.
In turn, `CC1=C(Oc2ccccc2)C(CCC(=O)O)c2c(O)cc(Cl)c(O)c21` (stereo unspecified) gave a TGI of over 100 µM.
Still for that read-out and setting: the figure for `COc1cc(C(=O)C/C(CCCC(=O)Nc2ccccc2[N+](=O)[O-])=N/NC(=O)c2cc3ccccc3cc2O)ccc1O` is over 100 µM.
`CC(C)[C@H]1CO[C@]2(C)[C@@H]3CN(Cc4ccccc4)C[C@@H]3C(=O)N12`: the TGI is over 100 µM.
Consider `CN(C)C(=O)OC(Cn1cncn1)c1ccc(Cl)cc1Cl` (stereo unspecified), for which the TGI was over 100 µM.
As for `CCOC(=O)COc1ccccc1/C=C1\CCC(CN(C)C)C1=O` (stereo unspecified), the TGI came to 31.8 µM.
On to `Cc1c(C(=O)C/C(=N\O)C(=O)Nc2cc(Cl)c(Cl)cc2Cl)[n+](=O)c2ccccc2n1[O-]`, for which the TGI worked out at 39.4 µM.
Same read-out and setting: then `CC1=Nc2ccccc2S/C1=C(/C)NNC(=O)C(N)=O`, with over 100 µM; and `Nn1c(NNC(=O)C(=O)Nc2cc(Cl)c(Cl)cc2Cl)n[nH]c1=S`, with over 100 µM.
With `COc1ccc2c(c1)/C(=C\c1c(C)nc3sccn13)C(=O)N2`, the GI50 is 4.01 µM and the TGI was over 100 µM.
`O=C(N/C(=C\c1ccc2c(c1)OCO2)c1nc2ccccc2[nH]1)c1ccccc1`: the TGI stood at 69.4 µM.
Take `CSc1ccc(C2OC(=O)c3ccccc32)c2ccccc12` (stereo unspecified): the TGI is over 100 µM.
The compound `Cc1[nH]ccc2c1[nH]c1cc(=O)ccc12` had a TGI of over 100 µM.
Take `C#CCOCn1cnc2c(Cl)ncnc21`: the TGI was over 100 µM.
`NC1C[C@H](n2cc(/C=C/Br)c(=O)[nH]c2=O)C[C@@H]1CO` (stereo partly specified) came in with a TGI of over 100 µM.
On to `O=c1/c(=C/c2ccccc2F)sc2nc3ccccc3n12`, for which the TGI was over 100 µM.
Consider `COC(C(=O)[O][Ge]([CH3])([CH3])[CH3])c1ccccc1` (stereo unspecified), for which the GI50 is over 100 µM and the TGI is over 100 µM.
For the compound `CC(=O)OCC1OC(OC2C(CSC3OC(COC(C)=O)C(OC(C)=O)C(OC(C)=O)C3OC(C)=O)OC(OC(C)=O)C(OC(C)=O)C2OC(C)=O)C(OC(C)=O)C(OC(C)=O)C1OC(C)=O` (stereo unspecified), the TGI is over 100 µM.
As to `CCCCC(CC)CN=C(N)NC(N)=NCCCCCCN=C(N)NC(N)=NCC(CC)CCCC` (stereo unspecified), the GI50 is 1.9 µM and the TGI came out at 4.85 µM.
`COc1ccc(OC)c(NC(=O)C2=C(C)NC(C)=C(C(=O)Nc3cc(OC)ccc3OC)C2c2ccccc2)c1`: the TGI is over 100 µM.
As to `Nc1ccn(CCNCCn2cnc3nc(N)[nH]c(=O)c32)c(=O)n1`, the TGI was over 100 µM.

Another assay deals with CCRF-CEM leukemia. As to the kind of experiment: inhibition of tumour cell growth, NCI panel, 48 h.
Compound `C/C(=N\NS(=O)(=O)c1ccccc1)c1ccc(Cl)c(Cl)c1` came in with a TGI of over 100 µM.
For the compound `CCCNC1=C(C(=O)OCC)C(=O)CO1`, the TGI was over 100 µM.
In turn, `COC(=O)C(=O)C1(CCC(C)=O)c2ccccc2-c2c(C)ccc(C)c21` (stereo unspecified) displayed a TGI of over 100 µM.

Source of the values: PubChem BioAssay (NCI).
